From patent publication US9732094B2, “Arylquinazolines” (Merck Patent GmbH, priority 2013, dated 2017)
Like-named read-outs stand apart in the source and are kept apart here.

Columns and labels:
[1] = target: T1, DNA-PK (Homo sapiens (Human), UniProt P78527); experiment: DNA-PK assay (biochemical), flashplate 33P-ATP kinase assay
Outline: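 Reactions ran in streptavidin-coated flashplates and were halted by 200 mM EDTA, with a further 30 min at room temperature before saline washing.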

[2] = target: T2, Kv11.1 (hERG) (Homo sapiens (Human), UniProt Q12809)
[3] = target: DNA-PK phosphorylation at serine 2056 (Homo sapiens (Human), UniProt P78527); experiment: DNA-PK phosphorylation at serine 2056 (cellular), bleomycin-treated HCT116 cells, ELISA; assay type: cell-based; conditions: cellular DNA-PK phosphorylation at serine 2056, HCT116; read-out: IC50 pDNA-PK
Outline: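 Chemiluminescent ELISA read-out; phospho-specific signal normalised to total DNA-PKcs. Cells (HCT116) exposed 6 h to test compound plus 10 μM bleomycin to induce double-strand breaks; DMSO control served as blank.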

[4] = target: T2, Kv11.1 (hERG); experiment: Kv11.1 ion channel binding assay (Predictor hERG fluorescence polarisation); conditions: cells marked *: measured using hERG binding assay instead of hERG patch clamp assay; read-out: Ki [Kv1.11 hERG]
Protocol: D) Kv11.1 Ion Channel Binding Assay
Kv11.1 (hERG=human ether a go-go related […]) is a cardiac K^+ channel which should if possible not interact with the test substances. This interaction is determined quantitatively with the aid of the Predictor™ hERG Fluorescence Polarizations (FP) Assays from Life Technologies. In the case of this assay principle, cardiomyocyte cell membranes having a certain proportion of Kv11.1 channels are isolated. A dye-labelled Kv11.1 binding partner gives a high fluorescence polarisation signal by interaction with the Kv11.1. In the case of displacement of the dye, a reduction in the fluorescence polarisation signal occurs.
The assay is carried out automatically as follows: 15 nl of the test substances (highest concentration: 10 mM, 10 concentrations: dilution factors 1:3.16, DMSO) are transferred into an empty microtitre plates having 384 wells by means of an acoustic pipetter. 3 μl of the isolated membranes are subsequently added. Membranes and test substances are incubated at 22° C. for 15 min (+/−5 min). In the next step, the dye-labelled binding partner is added, followed by incubation at 22° C. After incubation for two hours, the measurement of the fluorescence polarisation is carried out on an Envision multimode Reader. Measured raw data are standardised with the aid of Genedata Assay Analyzer. The 1050 and % effect values are calculated in Genedata Condoseo.

[5] = system: kinases of the PI3K isoenzyme family; conditions: cited from earlier work
[6] = target: T1, DNA-PK; conditions: ATP-competitive; Hardcastle et al. (2005); cited from earlier work

T2 sequence (Q12809 whole entry): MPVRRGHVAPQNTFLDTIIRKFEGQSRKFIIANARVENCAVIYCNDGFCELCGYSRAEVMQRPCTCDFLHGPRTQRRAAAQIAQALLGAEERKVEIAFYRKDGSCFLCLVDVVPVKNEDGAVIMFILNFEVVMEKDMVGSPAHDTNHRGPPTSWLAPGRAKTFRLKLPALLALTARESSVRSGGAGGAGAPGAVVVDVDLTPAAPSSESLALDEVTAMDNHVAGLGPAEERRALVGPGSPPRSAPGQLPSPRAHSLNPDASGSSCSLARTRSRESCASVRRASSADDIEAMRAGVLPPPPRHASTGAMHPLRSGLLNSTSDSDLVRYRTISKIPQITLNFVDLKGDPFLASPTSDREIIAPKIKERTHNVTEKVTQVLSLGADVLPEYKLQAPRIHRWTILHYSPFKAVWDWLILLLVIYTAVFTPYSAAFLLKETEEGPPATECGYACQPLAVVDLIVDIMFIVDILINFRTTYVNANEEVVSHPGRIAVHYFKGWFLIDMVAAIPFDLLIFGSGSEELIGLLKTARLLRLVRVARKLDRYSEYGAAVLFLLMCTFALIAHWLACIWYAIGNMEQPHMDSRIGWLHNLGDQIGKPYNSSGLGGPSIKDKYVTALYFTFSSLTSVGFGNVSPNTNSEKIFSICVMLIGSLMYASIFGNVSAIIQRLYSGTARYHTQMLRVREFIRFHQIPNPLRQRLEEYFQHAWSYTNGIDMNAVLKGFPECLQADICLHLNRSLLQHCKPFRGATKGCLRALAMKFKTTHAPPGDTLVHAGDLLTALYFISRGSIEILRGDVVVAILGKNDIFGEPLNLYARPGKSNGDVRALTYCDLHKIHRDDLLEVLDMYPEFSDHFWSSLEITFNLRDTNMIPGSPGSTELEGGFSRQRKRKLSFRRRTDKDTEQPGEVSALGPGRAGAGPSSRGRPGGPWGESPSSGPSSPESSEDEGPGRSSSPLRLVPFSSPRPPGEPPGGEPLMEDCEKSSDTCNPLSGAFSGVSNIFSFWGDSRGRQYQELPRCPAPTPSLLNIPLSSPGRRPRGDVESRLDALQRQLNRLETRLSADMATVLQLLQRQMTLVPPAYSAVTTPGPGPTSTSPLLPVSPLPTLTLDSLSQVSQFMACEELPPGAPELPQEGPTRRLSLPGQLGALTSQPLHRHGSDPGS

O=c1ccc(C(O)c2ccc(F)c(-c3ncnc4cc(N5C6CCC5COC6)ccc34)c2)n[nH]1 (stereo not shown) [Example 75, 6-({4-Fluoro-3-[7-(3-oxa-8-aza-bicyclo-[3.2.1]oct-8-yl)-quinazolin-4-yl]phenyl}-hydroxymethyl)-2H-pyridazin-3-one]
IC50 ([1]; enzymatic, 5 μM ATP): > 30 nM | Ki [2]: > 25000 nM

Cn1cnc2ccnc(C(O)c3ccc(F)c(-c4ncnc5cc(N6CCOCC6)ccc45)c3)c21 (stereo not shown) [Example 461, [4-Fluoro-3-(7-morpholin-4-yl-quinazolin-4-yl)-phenyl]-(3-methyl-3H-imidazo[4,5-c]-pyridin-4-yl)methanol]
IC50 ([1]; biochemical DNA-PK assay): < 3 nM | IC50 [3]: < 500 nM | Ki [4]: > 25000 nM

OC(c1ccc(F)c(-c2ncnc3cc(N4CCOCC4)ccc23)c1)c1ncnc2ccoc12 (stereo not shown) [Example 471, [4-Fluoro-3-(7-morpholin-4-yl-quinazolin-4-yl)-phenyl]furo[3,2-d}-pyrimidin-4-yl-methanol]
IC50 ([1]; biochemical DNA-PK assay): < 3 nM | IC50 [3]: < 500 nM | Ki [4]: > 25000 nM

CCN1CCN(CC(=O)Nc2ccc(-c3cccc4c(=O)cc(N5CCOCC5)oc34)c3sc4ccccc4c23)CC1 [KU-0060648]
inhibition of kinases of the PI3K isoenzyme family [5]: potently inhibited

O=c1cc(N2CCOCC2)oc2c(-c3cccc4c3sc3ccccc34)cccc12 [NU-7441]
IC50 [6]: 20 nM
